Assay results as given in ChEMBL document CHEMBL1131732, “Potential anxiolytic agents. 3. Novel A-ring modified pyrido[1,2-a]benzimidazoles” (Bioorg Med Chem Lett, 1999).

Tests used:
[1] = test system: Mus musculus; test: In vivo inhibitory activity against metrazole-induced seizures in mice by peroral administration; type: functional; conditions: po
[2] = target: GABA-A receptor; anion channel; test: In vitro inhibitory against Gamma-aminobutyric acid A receptor from rat cerebral cortex using [3H]flunitrazepam as the radioligand; type: tissue-based
[3] = test system: Rattus norvegicus; test: Inhibitory activity determined by experimentally-induced conflict test in rats after oral administration; type: functional; conditions: read-out: MED
[4] = test system: Mus musculus; test: In vivo inhibitory activity against metrazole-induced seizures in mice by intraperitoneal administration; type: functional; conditions: ip
[5] = test system: Rattus norvegicus; test: Inhibition of experimentally-induced conflict in rats following i.p. administration.; type: functional; conditions: ip, read-out: MED
[6] = target: GABA-A receptor; anion channel (Rattus norvegicus) (UniProt O09028+P15431+P18506+P18508+P19969+P20236+P23574+P23576+P28471+P28473+P30191+P62813+P63079+P63138+Q91ZM7+Q9ES14); test: GABA shift which is the ratio of binding in the absence and presence of GABA (1 mM) was determined; type: protein-complex assay

Structure (SMILES) | ED50 [1] | IC50 [2] | minimal effective dose [3] | ED50 [4] | minimal effective dose [5] | GS [6]
O=C(Nc1ccccc1)C1=C(O)CCn2c1nc1cc(O)ccc12 | > 30 mg/kg | 40.5 nM | > 30 mg/kg | > 30 mg/kg | > 30 mg/kg | 1.1
O=C(Nc1ccccc1)C1=C(O)CCn2c1nc1ncccc12 | < 30 mg/kg | 8.3 nM | 30 mg/kg | 3 mg/kg | > 10 mg/kg | 3
COc1cccc2c1nc1n2CCC(O)=C1C(=O)Nc1c(F)cccc1F | – | 156 nM | – | – | – | 3.7
O=C(Nc1c(F)cccc1F)C1=C(O)CCn2c1nc1c(Cl)cccc12 | 10 mg/kg | 1.1 nM | > 10 mg/kg | 0.3 mg/kg | 10 mg/kg | 1.7
O=C(Nc1ccccc1F)C1=C(O)CCn2c1nc1ccc(F)c(F)c12 | > 1 mg/kg | 857 nM | > 10 mg/kg | > 1 mg/kg | – | 2.5
O=C(Nc1ccccc1F)C1=C(O)CCn2c1nc1ncccc12 | 10 mg/kg | 3.5 nM | > 30 mg/kg | 1 mg/kg | 10 mg/kg | 2.7
Cc1cccc2c1nc1n2CCC(O)=C1C(=O)Nc1ccccc1 | > 10 mg/kg | 10.1 nM | > 30 mg/kg | ~1 mg/kg | > 10 mg/kg | 2.8
O=C(Nc1ccccc1F)C1=C(O)CCn2c1nc1cccc(O)c12 | > 30 mg/kg | 14 nM | > 30 mg/kg | > 1 mg/kg | > 1 mg/kg | 2.8
COc1cccc2c1nc1n2CCC(O)=C1C(=O)Nc1ccccc1F | – | 7.8 nM | – | – | – | 1.4
O=C(Nc1ccccc1)C1=C(O)CCn2c1nc1cccnc12 | > 10 mg/kg | 4380 nM | > 30 mg/kg | > 10 mg/kg | > 10 mg/kg | 2.1
O=C(Nc1ccccc1F)C1=C(O)CCn2c1nc1c(Cl)cccc12 | > 30 mg/kg | 7.1 nM | > 10 mg/kg | 1 mg/kg | 10 mg/kg | 1.8
O=C(Nc1ccccc1F)C1=C(O)CCn2c1nc1cc(C(F)(F)F)ccc12 | – | 184 nM | > 10 mg/kg | 1 mg/kg | – | 4.7
Cc1cccc2c1nc1n2CCC(O)=C1C(=O)Nc1ccccc1F | 10 mg/kg | 96.3 nM | > 30 mg/kg | 1 mg/kg | 10 mg/kg | 1.5
O=C(Nc1c(F)cccc1F)C1=C(O)CCn2c1nc1cnccc12 | – | 17.7 nM | 3 mg/kg | > 10 mg/kg | – | 2.4
O=C(Nc1ccccc1F)C1=C(O)CCn2c1nc1cc(Cl)ccc12 | ~30 mg/kg | 5.1 nM | > 10 mg/kg | 1 mg/kg | 10 mg/kg | 1.8
O=C(Nc1ccccc1F)C1=C(O)CCn2c1nc1cc3ccccc3cc12 | > 30 mg/kg | 17 nM | > 10 mg/kg | 1 mg/kg | 10 mg/kg | 1
O=C(Nc1c(F)cccc1F)C1=C(O)CCn2c1nc1cc(F)ccc12 | 3 mg/kg | 6.3 nM | 3 mg/kg | 0.3 mg/kg | 3 mg/kg | 2.2

Structure (SMILES) | ED50 [1] | IC50 [2] | minimal effective dose [3] | ED50 [4] | minimal effective dose [5] | GS [6]
O=C(Nc1ccccc1F)C1=C(O)CCn2c1nc1ccc3ccccc3c12 | > 30 mg/kg | > 1000 nM | > 10 mg/kg | > 1 mg/kg | – | –
O=C(Nc1ccccc1F)C1=C(O)CCn2c1nc1c(F)cc(F)cc12 | > 1 mg/kg | 19.8 nM | > 10 mg/kg | > 1 mg/kg | – | 1.2
O=C(Nc1ccccc1F)C1=C(O)CCn2c1nc1c3ccccc3ccc12 | > 30 mg/kg | 154 nM | > 10 mg/kg | > 1 mg/kg | – | 2.8
COc1ccc2c(c1)nc1n2CCC(O)=C1C(=O)Nc1ccccc1F | > 10 mg/kg | 6.1 nM | > 30 mg/kg | > 10 mg/kg | > 10 mg/kg | 1.2
O=C(Nc1c(F)cccc1F)C1=C(O)CCn2c1nc1ccc(F)c(F)c12 | > 1 mg/kg | 66.2 nM | > 10 mg/kg | > 1 mg/kg | – | 1.7
O=C(Nc1c(F)cccc1F)C1=C(O)CCn2c1nc1c(F)cc(F)cc12 | > 1 mg/kg | 30.1 nM | > 10 mg/kg | > 1 mg/kg | – | 2.4
O=C(Nc1ccccc1F)C1=C(O)CCn2c1nc1cccnc12 | > 10 mg/kg | 291 nM | > 30 mg/kg | > 10 mg/kg | > 10 mg/kg | 1.3
O=C(Nc1ccccc1)C1=C(O)CCn2c1nc1ccc(Cl)cc12 | > 30 mg/kg | 174 nM | 30 mg/kg | > 10 mg/kg | > 10 mg/kg | 2.1
CN1C(=O)CN=C(c2ccccc2)c2cc(Cl)ccc21 [DIAZEPAM] | 0.5 mg/kg | – | 10 mg/kg | 0.11 mg/kg | 5 mg/kg | 2.2
O=C(Nc1ccccc1F)C1=C(O)CCn2c1nc1c(O)cccc12 | – | 10.4 nM | > 10 mg/kg | – | – | 3
O=C(Nc1ccccc1)C1=C(O)CCn2c1nc1cc(Cl)ccc12 | 20 mg/kg | 65.6 nM | > 30 mg/kg | 1 mg/kg | 10 mg/kg | 1.6
O=C(Nc1c(F)cccc1F)C1=C(O)CCn2c1nc1c(F)c(F)ccc12 | 0.2 mg/kg | 1.1 nM | 3 mg/kg | 0.2 mg/kg | – | 1.4
O=C(Nc1ccccc1F)C1=C(O)CCn2c1nc1cc(F)ccc12 | > 30 mg/kg | 1.9 nM | > 30 mg/kg | < 1 mg/kg | 10 mg/kg | 1.8
O=C(Nc1ccccc1F)C1=C(O)CCn2c1nc1c(F)c(F)ccc12 | 0.2 mg/kg | 1.4 nM | 10 mg/kg | 0.2 mg/kg | – | 1.7
O=C(Nc1c(F)cccc1F)C1=C(O)CCn2c1nc1ncccc12 | 30 mg/kg | 30.1 nM | > 10 mg/kg | 3 mg/kg | > 10 mg/kg | 1.8
O=C(Nc1c(F)cccc1F)C1=C(O)CCn2c1nc1cc(Cl)ccc12 | 10 mg/kg | 6.3 nM | 10 mg/kg | 1 mg/kg | 10 mg/kg | 2.2
COc1ccc2c(c1)nc1n2CCC(O)=C1C(=O)Nc1ccccc1 | > 10 mg/kg | 39.5 nM | > 30 mg/kg | 3 mg/kg | > 10 mg/kg | 2.5
